According to patent US8507724B2 (priority 2008, dated 2013):

Biological target: T1, α1 homomeric glycine receptors (Rattus norvegicus, UniProt P07727)
T1 construct: expressed in transfected cells; host or cells: HEK 293 (transient transfection by electroporation, cDNA in pCIS2 vector)
T1 sequence (P07727 29-457): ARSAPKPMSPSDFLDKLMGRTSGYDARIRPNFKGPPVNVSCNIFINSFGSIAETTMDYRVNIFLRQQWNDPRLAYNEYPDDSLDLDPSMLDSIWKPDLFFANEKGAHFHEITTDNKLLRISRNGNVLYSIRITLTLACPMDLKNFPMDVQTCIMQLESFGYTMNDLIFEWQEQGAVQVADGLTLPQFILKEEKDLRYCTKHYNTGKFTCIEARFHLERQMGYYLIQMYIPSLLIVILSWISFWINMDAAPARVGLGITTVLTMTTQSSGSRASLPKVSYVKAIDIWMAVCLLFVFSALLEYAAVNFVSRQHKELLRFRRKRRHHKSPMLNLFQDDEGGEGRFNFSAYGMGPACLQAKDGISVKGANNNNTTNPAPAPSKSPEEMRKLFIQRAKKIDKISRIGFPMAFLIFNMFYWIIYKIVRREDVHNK
Assay: Whole-cell patch-clamp, Cl- current activated via α1 homomeric glycine receptors in transfected HEK 293 cells
Type: cell-based
Procedure: Cells were cultured in Dulbecco's modified Eagle's medium (DMEM, Biochrom, Berlin, Germany), supplemented with 10% fetal calf serum (FCS, Biochrom, Berlin, Germany), 100 U ml^−1 penicillin and 100 μg ml^−1 streptomycin at 37° C. in a 5% CO2/air incubator. […] For co-transfection of rat α1 glycine receptor subunits, the corresponding cDNA, each subcloned in the pCIS2 expression vector (Invitrogen, San Diego, USA), was added to the suspension. To visualize transfected cells, they were co-transfected with cDNA of green fluorescent protein (GFP 10 μg ml^−1). For transfection, we used an electroporation device by EquiBio (Kent, UK).
The compounds according to the present invention under investigation were prepared as 1 M stock solution in ethanol, light-protected and stored in glass vessels at −20° C. Concentrations were calculated from the amount injected into the glass vials. Drug-containing vials were vigorously vortexed for 60 min. Glycine and picrotoxin were dissolved directly in bath solution.
Patch electrodes contained [mM] KCl 140, MgCl2 2, EGTA 11, HEPES 10, glucose 10; the bath solution contained [mM]
A tight electrical seal of several GΩ formed between the cell membrane and a patch-clamp electrode allows inward currents due to agonist-induced channel activation to resolve in the pA range. Electrical resistance of the pipettes was around 5 MΩ, corresponding to a total access resistance in the whole-cell configuration of about 10 MΩ. The compounds according to the present invention under investigation were applied to the cells via a smooth liquid filament achieved with a single outflow (glass tubing 0.15 mm inner diameter) connected to a piezo crystal. The cells were placed at the interface between this filament and the continuously flowing background solution. When a voltage pulse was applied to the piezo, the tube was moved up and down onto or away from the cell under investigation. Correct positioning of the cell in respect to the liquid filament was ensured applying a saturating (1000 μM) glycine pulse before and after each test experiment. Care was taken to ensure that the amplitude and the shape of the glycine-activated current had stabilized before proceeding with the experiment. Test solution and glycine (1000 μM) were applied via the same glass-polytetrafluoroethylen perfusion system, but from separate reservoirs. The contents of these reservoirs were mixed at a junction immediately before entering the superfusion chamber.
The compounds under test were applied alone in order to determine their direct agonistic effects. A new cell was used for each compound and each protocol, at least three different experiments were performed for each setting. The amount of the diluent ethanol corresponding to the highest compound concentration used was 34 000 μM.
For data acquisition and further analysis the inventors used the Axopatch 200B amplifier in combination with pClamp6 software (Axon Instruments, Union City, Calif., USA). Currents were filtered at 2 kHz. Fitting procedures were performed using a non-linear least-squares Marquardt-Levenberg algorithm. Details are provided in the appropriate figure legends or in the results section.
Activated currents were normalized to their own maximum response. The dose-response-curves were fitted according to (Inorm=[1+(EC50/[C])^nH]^−1), where Inorm is the current induced directly by the respective concentration [C] of the compound, normalized to the maximum inward current.

[1] = EC50 (nM), α1 homomer, initial tests, Hill fit to normalised response, rat α1 receptors in HEK 293

Row | Structure (SMILES) | EC50 [1] [nM] | EC50 (EC50, further series of tests (later tests)) [nM] | nH (Hill coefficient), α1 homomer (initial tests, Hill fit to normalised response)
1 | CC(C)c1cc(-c2ccc(Cl)c(F)c2)cc(C(C)C)c1O [p-(3-F,4-Cl—Ph)-propofol, Para-(3-Fluoro,4-chlorophenyl)-propofol] | 0.8 | 0.07 | 
2 | CC(C)c1cc(-c2ccc(Cl)cc2)cc(C(C)C)c1O [4-(p-Cl—Ph)-propofol, 4-(para-Chlorophenyl)-propofol] | 0.2 ± 0.3 |  | 1.1 ± 0.5
